Laboratory results taken from patent US20200239530A1, “COMPOUNDS AND METHODS OF MODULATING PROTEIN DEGRADATION” (Vividion Therapeutics, Inc., priority 2017, published 2020).

Legend:
Test in all cases: Cysteine liganding, probe competition
Assay type in all cases: binding
[1] = target: T1, DDX20 Probable ATP-dependent RNA helicase DDX20 (Homo sapiens, UniProt Q9UHI6)
T1 construct: 200 μL of lysate containing 5 mg/ml proteome was treated with 2 μL of 100× compound stock; endogenous in cells
T1 sequence (Q9UHI6 1-824): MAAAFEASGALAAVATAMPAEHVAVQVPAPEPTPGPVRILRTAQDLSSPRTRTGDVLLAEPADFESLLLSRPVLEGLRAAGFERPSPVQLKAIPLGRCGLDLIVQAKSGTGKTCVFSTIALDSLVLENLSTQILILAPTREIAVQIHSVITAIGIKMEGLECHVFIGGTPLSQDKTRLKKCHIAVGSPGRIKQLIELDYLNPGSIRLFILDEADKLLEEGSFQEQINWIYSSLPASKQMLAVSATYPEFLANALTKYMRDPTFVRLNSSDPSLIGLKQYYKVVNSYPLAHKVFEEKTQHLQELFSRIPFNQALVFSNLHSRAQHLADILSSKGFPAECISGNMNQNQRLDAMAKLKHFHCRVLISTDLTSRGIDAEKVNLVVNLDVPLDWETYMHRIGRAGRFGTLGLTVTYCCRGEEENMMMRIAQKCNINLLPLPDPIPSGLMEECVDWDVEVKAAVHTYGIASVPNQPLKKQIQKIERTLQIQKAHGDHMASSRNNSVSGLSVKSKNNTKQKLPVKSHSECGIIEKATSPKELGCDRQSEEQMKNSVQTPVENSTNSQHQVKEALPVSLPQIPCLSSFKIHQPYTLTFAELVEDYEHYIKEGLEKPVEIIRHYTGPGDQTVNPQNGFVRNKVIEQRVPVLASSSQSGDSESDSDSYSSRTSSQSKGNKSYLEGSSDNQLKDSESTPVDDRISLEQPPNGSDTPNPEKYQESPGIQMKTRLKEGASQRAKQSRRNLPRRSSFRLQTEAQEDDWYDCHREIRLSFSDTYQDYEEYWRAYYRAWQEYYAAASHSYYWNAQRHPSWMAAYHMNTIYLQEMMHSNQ
Outline: (§1)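 Read-out is loss of desthiobiotin iodoacetamide labelling at cysteines, measured on streptavidin-enriched tryptic peptides. Compound preincubation ran 1 hr at 25° C in PBS lysate holding 5 mg/ml proteome before the probe was added.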

[2] = target: T2, TRIM65 Tripartite motif-containing protein 65 (Homo sapiens, UniProt Q6PJ69)
T2 construct: Cells were resuspended in cold PBS on ice and sonicated with a probe sonicator to achieve lysis; endogenous in cells
T2 sequence (Q6PJ69 1-517): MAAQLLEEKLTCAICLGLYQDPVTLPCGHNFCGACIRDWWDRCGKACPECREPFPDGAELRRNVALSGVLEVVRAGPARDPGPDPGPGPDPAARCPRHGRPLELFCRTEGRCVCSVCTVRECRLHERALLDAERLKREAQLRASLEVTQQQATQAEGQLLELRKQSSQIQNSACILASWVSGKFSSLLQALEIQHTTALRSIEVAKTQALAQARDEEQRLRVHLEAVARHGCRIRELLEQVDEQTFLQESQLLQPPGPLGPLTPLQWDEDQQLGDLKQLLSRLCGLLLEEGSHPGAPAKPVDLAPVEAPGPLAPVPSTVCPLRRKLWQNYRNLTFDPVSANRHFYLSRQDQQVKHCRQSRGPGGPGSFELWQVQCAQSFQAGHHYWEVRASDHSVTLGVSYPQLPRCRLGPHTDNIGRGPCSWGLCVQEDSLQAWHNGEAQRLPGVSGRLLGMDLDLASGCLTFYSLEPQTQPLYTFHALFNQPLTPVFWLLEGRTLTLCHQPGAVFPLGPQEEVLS
Outline: as §1

[3] = target: T3, UBR2 E3 ubiquitin-protein ligase UBR2 (Homo sapiens, UniProt Q8IWV8)
T3 construct: Cells were resuspended in cold PBS on ice and sonicated with a probe sonicator to achieve lysis; endogenous in cells
T3 sequence (Q8IWV8 whole entry): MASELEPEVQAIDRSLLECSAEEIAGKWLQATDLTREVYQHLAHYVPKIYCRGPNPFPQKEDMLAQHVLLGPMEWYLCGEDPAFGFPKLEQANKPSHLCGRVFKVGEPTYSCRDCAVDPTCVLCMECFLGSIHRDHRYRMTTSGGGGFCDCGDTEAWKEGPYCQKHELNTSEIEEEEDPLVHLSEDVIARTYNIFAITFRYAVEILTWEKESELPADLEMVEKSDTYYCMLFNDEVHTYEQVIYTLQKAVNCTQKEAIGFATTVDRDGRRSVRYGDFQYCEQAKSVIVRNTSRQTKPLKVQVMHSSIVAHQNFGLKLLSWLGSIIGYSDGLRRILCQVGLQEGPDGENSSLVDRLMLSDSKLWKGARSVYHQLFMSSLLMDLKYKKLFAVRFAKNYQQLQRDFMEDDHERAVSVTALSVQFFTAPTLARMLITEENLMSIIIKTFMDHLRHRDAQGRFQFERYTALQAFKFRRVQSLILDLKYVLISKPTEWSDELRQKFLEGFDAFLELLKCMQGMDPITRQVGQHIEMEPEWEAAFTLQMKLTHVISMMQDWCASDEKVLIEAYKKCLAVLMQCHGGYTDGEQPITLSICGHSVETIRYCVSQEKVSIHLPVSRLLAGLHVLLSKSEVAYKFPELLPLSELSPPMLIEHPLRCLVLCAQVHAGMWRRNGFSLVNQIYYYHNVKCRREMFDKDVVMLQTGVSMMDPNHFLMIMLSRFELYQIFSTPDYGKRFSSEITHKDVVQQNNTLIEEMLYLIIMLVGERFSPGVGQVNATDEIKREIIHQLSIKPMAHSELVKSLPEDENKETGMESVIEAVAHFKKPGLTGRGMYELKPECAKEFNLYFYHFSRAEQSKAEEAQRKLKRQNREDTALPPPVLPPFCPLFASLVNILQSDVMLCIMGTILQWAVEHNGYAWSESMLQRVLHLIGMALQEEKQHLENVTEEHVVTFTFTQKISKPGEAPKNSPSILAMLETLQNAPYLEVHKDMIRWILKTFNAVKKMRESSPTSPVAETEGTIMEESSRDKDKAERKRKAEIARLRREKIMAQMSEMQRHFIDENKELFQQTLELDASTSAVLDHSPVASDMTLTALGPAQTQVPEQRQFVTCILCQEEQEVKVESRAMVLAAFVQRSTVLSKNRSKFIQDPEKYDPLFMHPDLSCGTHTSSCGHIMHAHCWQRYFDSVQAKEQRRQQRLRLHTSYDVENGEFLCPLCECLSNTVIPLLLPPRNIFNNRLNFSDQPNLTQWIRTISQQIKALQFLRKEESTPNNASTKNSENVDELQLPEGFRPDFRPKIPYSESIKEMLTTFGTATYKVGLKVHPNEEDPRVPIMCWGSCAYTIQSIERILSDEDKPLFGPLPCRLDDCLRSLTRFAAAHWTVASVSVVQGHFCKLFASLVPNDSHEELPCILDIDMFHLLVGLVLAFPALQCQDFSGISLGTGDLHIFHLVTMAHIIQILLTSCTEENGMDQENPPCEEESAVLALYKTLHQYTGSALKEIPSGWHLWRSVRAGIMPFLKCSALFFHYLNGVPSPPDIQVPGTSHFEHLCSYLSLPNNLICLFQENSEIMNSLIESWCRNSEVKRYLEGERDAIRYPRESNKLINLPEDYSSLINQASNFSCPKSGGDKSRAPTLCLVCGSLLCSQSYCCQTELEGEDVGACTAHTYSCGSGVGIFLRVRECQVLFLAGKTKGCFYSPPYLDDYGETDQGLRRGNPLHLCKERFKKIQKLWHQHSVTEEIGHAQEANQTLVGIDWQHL
Outline: as §1

O=C(CCl)Nc1cc(C(F)(F)F)cc(C(F)(F)F)c1 [KBO3]
100 Max ([1]; uniprot Q9UHI6): 0.85 | 100 ave ([1]; uniprot Q9UHI6): −6.7225 | 500 Max ([1]; uniprot Q9UHI6): 37.31 | 500 ave ([1]; uniprot Q9UHI6): 31.49 | 100 Max ([2]; uniprot Q6PJ69): 35.1 | 100 ave ([2]; uniprot Q6PJ69): 19.4 | 500 Max ([2]; uniprot Q6PJ69): 70.9 | 500 ave ([2]; uniprot Q6PJ69): 60.2 | 100 Max ([3]; uniprot Q8IWV8): 18.5 | 100 ave ([3]; uniprot Q8IWV8): 8.3 | 500 ave ([3]; uniprot Q8IWV8): 60.0 | 500 Max ([3]; uniprot Q8IWV8, unit assumed): 65.9%

COc1ccc2c(c1)CCCN2C(=O)CCl [KB02]
Liganded ([1]; DDX20 Res# 577, uniprot Q9UHI6): YES | Liganded ([2]; TRIM65 Res# 320, uniprot Q6PJ69): YES | Liganded ([3]; UBR2 Res# 1717, uniprot Q8IWV8): YES
